The data set is described as follows: gradient 5% acetonitrile 3 min, to 50% in 2 min, to 85% in 15 min, held 3 min, 100 µL/min. As to conditions: column: Zorbax Extend-C18 2.1 x 50 mm; eluents: water / acetonitrile, 0.1% formic acid. Summed up:
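The mobile phases were water and acetonitrile, each with 0.1% formic acid, pumped at 100 μL/min through a Zorbax Extend-C18 column (2.1 × 50 mm, 1.8 μm). Pure standards were injected as mixtures of ~100 molecules and detected by a quadrupole time-of-flight mass spectrometer in positive and negative ionization mode. Retention time came from computationally picked adduct peaks, each inspected by hand.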
For the molecule `O=C(NCC(c1cccnc1)N1CCOCC1)c1ccccc1` (stereo unspecified), the RP-LC retention time is 522 s.

Turning to `CCCn1c(C)cnc1C1CN(S(=O)(=O)c2cccc(Cl)c2)C1`, the RP-LC retention time turned out to be 669 s.

On to `Cc1ccccc1N1CCN(Cc2nc(-c3ccc(N4CCSCC4)nc3)no2)CC1`, for which the RP-LC retention time turned out to be 801 s.

The molecule `CCOC(=O)C1CCN(C(=O)Cn2cnc3nc4c(cc3c2=O)CCCC4)CC1` yielded an RP-LC retention time of 678 s.

For the molecule `Cc1cccc(OCCc2noc(C3CCCN3)n2)c1` (stereo unspecified), the RP-LC retention time is 645 s.

The molecule `COc1ccc(-c2cn3c(CC(=O)NCc4ccc(N(C)C)cc4)csc3n2)cc1OC` registered an RP-LC retention time of 588 s.

The molecule `COc1nn(C)cc1C(=O)NCc1cc(-c2ccco2)on1` returned an RP-LC retention time of 644 s.

`Cn1cccc1C(=O)N1CC[C@@H]2CN(S(C)(=O)=O)[C@@H]2C1` returned an RP-LC retention time of 624 s.

As to `CCc1ccc(NC(=O)N2CCCC(C)(C(=O)NCc3ccccc3C)C2)cc1` (stereo unspecified), the RP-LC retention time was determined as 1040 s.

Regarding `CCOC(=O)c1[nH]c(C)c(CCC(=O)NC(C)C(=O)N2CCCCC2)c1C` (stereo unspecified), the RP-LC retention time came out at 570 s.

In the case of `CCN(CC)S(=O)(=O)N1CCC(C(=O)Nc2ccc3sc(NC(=O)C(C)C)nc3c2)CC1`, the RP-LC retention time was 854 s.

For `COc1cccc(S(=O)(=O)N2CCC(Cc3nncn3C)C2)c1` (stereo unspecified), the RP-LC retention time worked out at 630 s.

With `CCC(C)NC(=O)Cc1c[nH]c2ncccc12` (stereo unspecified), the RP-LC retention time is 562 s.

In turn, `COc1ccc(C2=C(C)C(N3CCN(c4ccccn4)CC3)=NS2(=O)=O)cc1` had an RP-LC retention time of 620 s.

With `CCOC(=O)N1CCN(C(=O)CSc2ncnc3c2nnn3CC)CC1`, the RP-LC retention time was 657 s.

As to `O=C(Nc1ccc(C2(C(=O)NCc3ccc(F)cc3Cl)CCC2)cc1)C1CC1`, the RP-LC retention time amounted to 898 s.

Turning to `O=C(Cn1nc2nc(N3CCCC3)ccn2c1=O)NCc1ccc(F)c(Cl)c1`, the RP-LC retention time is 670 s.

`CN1C(C)(C)CCCC1(C)C` yielded an RP-LC retention time of 614 s.

Molecule `Fc1ccc(CN2CCCCC2c2nc(-c3cnccn3)no2)c(F)c1` (stereo unspecified) gave an RP-LC retention time of 738 s.

`CCN1C(=O)C(C)(C(=O)Nc2ccccc2F)Oc2cccnc21` (stereo unspecified) gave an RP-LC retention time of 855 s.

As for `O=C(Nc1ccc(C(F)(F)F)cn1)c1cccc2cccnc12`, the RP-LC retention time worked out at 1090 s.

`CCN1CCN(c2ncc(N3CCC(C(=O)NCCN4CCCCC4C)CC3)cn2)CC1` (stereo unspecified) displayed an RP-LC retention time of 537 s.

Regarding `CCN1CCCC(OC(=O)C(c2ccccc2)c2ccccc2)C1` (stereo unspecified), the RP-LC retention time amounted to 802 s.

Turning to `CN1C(=O)Cc2cc(NC(=O)c3ccno3)ccc21`, the RP-LC retention time was determined as 586 s.

Molecule `Cc1ccc(CNC(=O)CCn2nc(C)c3c(C)n(-c4ccccc4)nc3c2=O)o1` returned an RP-LC retention time of 734 s.

`Cc1noc(-c2ccc(-n3ncc(C(=O)N4CCN(c5ccccn5)CC4)c3C)nc2)n1` came in with an RP-LC retention time of 624 s.

In turn, `CCC(=O)N1CCc2cc(C(=O)NCc3ccc4c(c3)OCO4)ccc21` gave an RP-LC retention time of 761 s.

`CCCCN(C)c1nc(-c2ccc(C)cc2)nc2ccccc12` had an RP-LC retention time of 819 s.

Regarding `COc1cc(OC)cc(C(=O)N2C[C@@H]3C[C@H](NC(=O)c4cccs4)[C@H]2C3)c1`, the RP-LC retention time is 660 s.

For `CCC1(CC)NC(=O)N(CC(=O)Nc2ccc(F)cc2F)C1=O`, the RP-LC retention time was determined as 677 s.

Regarding `Cc1nc(Nc2ccc(Cl)cn2)sc1C(=O)NCCN(C)C`, the RP-LC retention time amounted to 602 s.

`CC1CCC(NC(=O)C2CCCN(S(=O)(=O)c3c[nH]c(C(=O)N4CCCCCC4)c3)C2)CC1` (stereo unspecified) came in with an RP-LC retention time of 938 s.

Molecule `CC(NC(=O)C1CCCN(C(=O)c2cc3sccc3n2C)C1)c1ccc2c(c1)OCCO2` (stereo unspecified) registered an RP-LC retention time of 838 s.

In the case of `COc1ccc(-c2ccnc3nc(-c4ccccc4OC)nn23)cc1OC`, the RP-LC retention time turned out to be 804 s.

As for `CCCc1cc(N2CCN(C(=O)COc3ccc(F)cc3)CC2)nc2nnc(C)n12`, the RP-LC retention time amounted to 645 s.

`CN(C)CCNC(=O)c1ccc(Cn2nc(N3CCN(c4ccc(F)cc4)CC3)ccc2=O)o1`: the RP-LC retention time turned out to be 588 s.

The molecule `CCOC1CCN(C(=O)NC2CCCCC2)CC1` yielded an RP-LC retention time of 740 s.

As to `COc1cc(OC)c(C(=O)CCCCN2CCC3(CC2)NC(=O)NC3=O)cc1NS(=O)(=O)c1ccc(C(F)(F)F)cc1`, the RP-LC retention time came to 750 s.

`CN(C)c1cc(OC2CCN(C(=O)c3c[nH]c4ccccc34)C2)ncn1` (stereo unspecified) showed an RP-LC retention time of 604 s.

Molecule `COc1ccc(-n2nnc(-c3nc(C)c(C(=O)NCc4ccco4)s3)c2C)cc1` showed an RP-LC retention time of 879 s.

Molecule `Cn1c(=O)c2cc(C(=O)Nc3ccccc3)cnc2n(-c2ccc(F)cc2)c1=O` had an RP-LC retention time of 885 s.

`CN(C(=O)CSc1cc(NCc2ccc(Cl)cc2)ncn1)C1CCCCC1` had an RP-LC retention time of 956 s.

Molecule `Cc1ccccc1CC(=O)N1CCCC1c1c(C)noc1C` (stereo unspecified) had an RP-LC retention time of 797 s.

For `O=S(=O)(c1cc(Cl)ccc1Cl)N1CCc2nc(-c3ccccc3)ncc2C1`, the RP-LC retention time amounted to 1180 s.

On to `Cc1ccnc(NC(=O)C2CCN(S(=O)(=O)c3cc(C(=O)N4CCCC4)n(C)c3)CC2)c1`, for which the RP-LC retention time is 674 s.

The molecule `CC(C)CNC(=O)C1CCN(c2nccn3nc(-c4cccs4)cc23)CC1` yielded an RP-LC retention time of 561 s.

Consider `O=C(O)CCCC(=O)Nc1nc(-c2cccc3ccccc23)cs1`, for which the RP-LC retention time was found to be 818 s.

In turn, `Cc1ccc(N2CN(CC(=O)Nc3cccc(Cl)c3)S(=O)(=O)c3cccnc32)cc1` displayed an RP-LC retention time of 1030 s.

In turn, `O=C(c1ccccn1)N1CCC(n2c(-c3ccoc3)nc3cccnc32)C1` (stereo unspecified) gave an RP-LC retention time of 631 s.

For the molecule `Cc1noc(C)c1CNC(=O)NCCc1ccccc1`, the RP-LC retention time was found to be 689 s.

Molecule `Cc1nc(Nc2ncc(C(=O)Nc3c(C)cccc3Cl)s2)cc(N2CCN(CCO)CC2)n1` had an RP-LC retention time of 682 s.

In the case of `COc1ccc(OC)c(NC(=O)CN2CCN(Cc3ccccc3)C(=O)C2=O)c1`, the RP-LC retention time was 732 s.

In the case of `COc1cccc(-c2noc(Cc3nnc(-c4ccc(F)cc4)o3)n2)c1OC`, the RP-LC retention time was 943 s.

Consider `N#Cc1cccc(S(=O)(=O)NC2CCc3nn(CC4CC4)c(=O)n3CC2)c1` (stereo unspecified), for which the RP-LC retention time was 706 s.

In the case of `Cc1oc2ncn(CC(=O)N3CCCc4ccccc43)c(=O)c2c1C`, the RP-LC retention time was 838 s.

Consider `Cc1ccc(N2CCC(NC(=O)c3ccc4nc[nH]c4c3)C2=O)cc1` (stereo unspecified), for which the RP-LC retention time came to 607 s.

In turn, `Cc1ccc(CNC(=O)C2CCN(S(=O)(=O)c3ccc4c(c3)CCCC(=O)N4)CC2)o1` registered an RP-LC retention time of 710 s.

`CCn1c(=O)oc2cc(-c3noc(-c4ccc(C)c(F)c4)n3)ccc21`: the RP-LC retention time was 1200 s.

`COc1ccc(NC(=O)N2CCN(c3nc4ccccc4nc3C(F)(F)F)CC2)c(OC)c1`: the RP-LC retention time amounted to 1070 s.

Molecule `CC(C)Cn1nc2n(c1=O)CCN(S(=O)(=O)Cc1ccccc1)CC2` gave an RP-LC retention time of 777 s.

Consider `CCC1CCCCN1C(=O)c1cnc2nc(C)ccc2c1Nc1ccc(F)cc1C` (stereo unspecified), for which the RP-LC retention time was 703 s.

For the molecule `Cc1cc(=O)n(CC(=O)Nc2ccc3c(c2)OCO3)c(N2CCCC2)n1`, the RP-LC retention time was 629 s.

Turning to `O=C(NCCN1CCN(C(=O)Cn2ccc3ccccc32)CC1)c1cccs1`, the RP-LC retention time was 572 s.

Take `CCCCn1c(CN2CCCC2)nc2cc(NC(=O)c3ccco3)ccc21`: the RP-LC retention time stood at 626 s.

On to `O=C(NCCCN1CCCC1)C1CCCN(c2nccnc2Sc2ccccc2)C1` (stereo unspecified), for which the RP-LC retention time worked out at 659 s.

For `Cc1ccc(C)c(NC(=O)NCC(c2cccnc2)c2cn(C)c3ccccc23)c1` (stereo unspecified), the RP-LC retention time turned out to be 733 s.

`Cc1ccc(NC(=O)Cn2cccc2-c2nnc(C3CCC3)o2)c(C)c1` showed an RP-LC retention time of 963 s.

On to `Cc1ccc(CN2CCC(N3CC(F)(F)C[C@H]3COc3cccnc3)CC2)s1`, for which the RP-LC retention time worked out at 587 s.

The molecule `Cc1ccc(NC(=O)N2CCCC(Cn3c(C4CC4)nc4cccnc43)C2)cc1C` (stereo unspecified) gave an RP-LC retention time of 694 s.

`O=C(NCCN1CCOCC1)C1CCN(c2ccc3nnc(-c4ccccc4F)n3n2)CC1` showed an RP-LC retention time of 693 s.

The molecule `CC(C)CNC(=O)CCc1nc2ccccc2n(CC(=O)NCCc2ccc(Cl)cc2)c1=O` yielded an RP-LC retention time of 855 s.

For `Cn1nc(N2CCC(NC(=O)C3CCCCC3)C2)ccc1=O` (stereo unspecified), the RP-LC retention time came to 649 s.

For `CCCN(CC(=O)N(Cc1ccco1)CC1CCCO1)C(=O)c1ccc2c(c1)OCO2` (stereo unspecified), the RP-LC retention time came out at 770 s.

`Cc1ccccc1NC(=O)NCCCn1c(C(F)(F)F)nc2cccnc21`: the RP-LC retention time was determined as 761 s.

Regarding `O=S(=O)(Cc1ccccc1Cl)NCC1CCN(Cc2ccsc2)CC1`, the RP-LC retention time amounted to 588 s.

For `Cc1ccn2c(NC(=O)c3ccc4ccccc4c3)c(-c3ccccc3)nc2c1`, the RP-LC retention time was determined as 747 s.

`COC(=O)Cc1[nH]c(=O)[nH]c1C(=O)OC` came in with an RP-LC retention time of 1100 s.

For `Cc1cccc(NC(=O)C2CCN(S(=O)(=O)c3cc(-c4noc(C5CC5)n4)cs3)CC2)c1C`, the RP-LC retention time came out at 1020 s.

On to `CC(C)C(=O)NCc1cnn(-c2ccc(C(=O)Nc3ccc4c(c3)OCCO4)cc2)c1`, for which the RP-LC retention time turned out to be 733 s.

Turning to `CCOC(=O)c1ccc(NC(=O)Cn2c(C)nc3c(sc4nc(-c5ccccc5)ccc43)c2=O)cc1`, the RP-LC retention time stood at 1100 s.

`Cc1ccc(CNC(=O)C2=CCN(Cc3ccccc3)CC2)o1` returned an RP-LC retention time of 601 s.
